Results reported in patent US11541093B2, “Pharmacological use of Cimicifuga extract” (Max Zeller Soehne AG, priority 2012, dated 2023).

Experiments:
[1] = system: diabetic rats; conditions: intravenously at 5 and 10 mg/kg; cited from earlier work
[2] = system: male ob/ob mice; test: Body weight in male ob/ob mice; type: in vivo
From the text: (§1) The effects of oral 7-day administration of a Cimicifuga racemosa extract prepared according to example 1 and designated Ze 450 on body weight, daily food and water intake as well as glucose control were investigated in male ob/ob mice as follows. The ob/ob mouse is a well-characterized and representative in-vivo model of obesity and diabetes in mammals, in particular humans, wherein both disorders are the result of a mutation in the ob gene which encodes leptin. In the study metformin was the positive control.
(§2) Body weight, food and water intake were measured daily from 6 days before dosing to 6 days after dosing started. Animals were fasted overnight on Day 6 for an oral glucose tolerance test (OGTT) on Day 7. The animals also had freely fed bleeds on Day −4 and Day 6. […]
(§3) All treatments were dosed orally by gavage […] once daily. During the treatment period food intake, water intake and body weight were recorded daily at the dosing session. After dosing the animals were examined and any overt behavior was recorded. […]
(§4) Body weights, food intake and water intake were expressed as mean values ±SEM. Body weight, body weight gain, daily and average food and water intake data and cumulative food intake were analyzed by ANCOVA with baseline as a covariate, followed by appropriate comparisons (two-tailed) to determine significant differences from the appropriate control group. […]

[3] = system: male ob/ob mice; test: Daily water intake in male ob/ob mice; type: in vivo; conditions: metformin PO; p=0.002
From the text: as §1, §2, §3, §4

COc1ccc(/C=C/C(=O)O)cc1O [isoferulic acid]
plasma glucose levels [1]: will lower plasma glucose levels

CN(C)C(=N)N=C(N)N [metformin]
effect on overall body weight ([2]; metformin 200 mg/kg PO, after 6 days of treatment): no significant effect
cumulative body weight over the 6 treatment days ([2]; metformin PO, compared to its control group): virtually no reduction
average weekly water intake [3]: significant (p=0.002) reduction
